Data published in BindingDB's records for patent US12371428 (Exelixis, 2025).

Columns and labels:
[1] = biological target: T1, Tyrosine-protein kinase Mer (Homo sapiens, UniProt Q12866); assay: Human Mer Kinase Assay
T1 sequence (Q12866 whole entry): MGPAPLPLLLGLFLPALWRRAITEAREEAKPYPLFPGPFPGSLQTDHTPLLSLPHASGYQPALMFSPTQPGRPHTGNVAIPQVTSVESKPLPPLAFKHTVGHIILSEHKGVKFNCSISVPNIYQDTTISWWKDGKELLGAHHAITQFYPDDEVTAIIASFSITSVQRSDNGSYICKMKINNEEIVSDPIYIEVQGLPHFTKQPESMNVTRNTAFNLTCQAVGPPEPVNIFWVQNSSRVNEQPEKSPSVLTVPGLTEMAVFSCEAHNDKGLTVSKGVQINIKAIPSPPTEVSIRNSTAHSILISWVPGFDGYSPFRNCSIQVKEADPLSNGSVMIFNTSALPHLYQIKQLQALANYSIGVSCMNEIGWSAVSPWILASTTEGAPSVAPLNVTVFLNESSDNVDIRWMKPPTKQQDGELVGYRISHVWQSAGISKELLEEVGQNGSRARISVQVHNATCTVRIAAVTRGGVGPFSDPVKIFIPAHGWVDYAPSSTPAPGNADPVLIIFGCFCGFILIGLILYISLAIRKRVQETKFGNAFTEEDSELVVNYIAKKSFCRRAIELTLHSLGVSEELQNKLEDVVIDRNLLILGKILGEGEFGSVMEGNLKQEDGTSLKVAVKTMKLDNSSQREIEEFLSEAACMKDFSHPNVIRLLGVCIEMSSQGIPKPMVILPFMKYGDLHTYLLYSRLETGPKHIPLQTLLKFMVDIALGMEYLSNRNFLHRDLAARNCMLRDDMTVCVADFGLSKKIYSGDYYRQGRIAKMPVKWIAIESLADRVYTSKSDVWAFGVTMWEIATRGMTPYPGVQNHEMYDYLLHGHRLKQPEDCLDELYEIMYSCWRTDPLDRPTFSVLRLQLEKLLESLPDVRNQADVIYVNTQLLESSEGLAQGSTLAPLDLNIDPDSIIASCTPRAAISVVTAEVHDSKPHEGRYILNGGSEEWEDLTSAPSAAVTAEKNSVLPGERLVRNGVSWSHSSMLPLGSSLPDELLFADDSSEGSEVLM
Procedure: Example C-1: Human Mer (residues R557-E882 with H628Q and R794A, 0.7 nM) was incubated with 8 mM MOPS pH 7.0, 0.2 mM EDTA, 30 mM NaCl, 250 μM […] (SEQ ID NO:2), 10 mM magnesium acetate, and 10 μM [γ-33P-ATP]. The reaction was initiated by the addition of the Mg/ATP mix. After incubation for 40 minutes at room temperature, the reaction was stopped by the addition of phosphoric acid to a concentration of 0.5%. A reaction aliquot of 10 μL was then spotted onto a P30 filtermat and washed four times for 4 minutes in 0.425% phosphoric acid and once in methanol prior to drying and scintillation counting. Incorporated 33P was measured using the Wallac Microbeta scintillation counter (Perkin Elmer).Example C-2: Human MER (residues 528-999; CarnaBio, 1 ng/well) was also incubated with enzymatic buffer (Cisbio) supplemented with 5 mM MgCl2 and 1 mM DTT. The mixture was added to the pre-plated compounds. The reaction was initiated upon addition of ATP at Km (40 μM). The reaction was incubated at room temperature for 60 min and stopped upon the addition of SA-XL665 and TK-antibody both diluted in EDTA-containing kinase detection buffer (Cisbio). The kinase activity was calculated as stated above and the IC50 values were reported.

[2] = biological target: Hepatocyte growth factor receptor (Homo sapiens, UniProt P08581); assay: Human Met Kinase Assay
Hepatocyte growth factor receptor, sequence (P08581 whole entry, the tested form may be a part): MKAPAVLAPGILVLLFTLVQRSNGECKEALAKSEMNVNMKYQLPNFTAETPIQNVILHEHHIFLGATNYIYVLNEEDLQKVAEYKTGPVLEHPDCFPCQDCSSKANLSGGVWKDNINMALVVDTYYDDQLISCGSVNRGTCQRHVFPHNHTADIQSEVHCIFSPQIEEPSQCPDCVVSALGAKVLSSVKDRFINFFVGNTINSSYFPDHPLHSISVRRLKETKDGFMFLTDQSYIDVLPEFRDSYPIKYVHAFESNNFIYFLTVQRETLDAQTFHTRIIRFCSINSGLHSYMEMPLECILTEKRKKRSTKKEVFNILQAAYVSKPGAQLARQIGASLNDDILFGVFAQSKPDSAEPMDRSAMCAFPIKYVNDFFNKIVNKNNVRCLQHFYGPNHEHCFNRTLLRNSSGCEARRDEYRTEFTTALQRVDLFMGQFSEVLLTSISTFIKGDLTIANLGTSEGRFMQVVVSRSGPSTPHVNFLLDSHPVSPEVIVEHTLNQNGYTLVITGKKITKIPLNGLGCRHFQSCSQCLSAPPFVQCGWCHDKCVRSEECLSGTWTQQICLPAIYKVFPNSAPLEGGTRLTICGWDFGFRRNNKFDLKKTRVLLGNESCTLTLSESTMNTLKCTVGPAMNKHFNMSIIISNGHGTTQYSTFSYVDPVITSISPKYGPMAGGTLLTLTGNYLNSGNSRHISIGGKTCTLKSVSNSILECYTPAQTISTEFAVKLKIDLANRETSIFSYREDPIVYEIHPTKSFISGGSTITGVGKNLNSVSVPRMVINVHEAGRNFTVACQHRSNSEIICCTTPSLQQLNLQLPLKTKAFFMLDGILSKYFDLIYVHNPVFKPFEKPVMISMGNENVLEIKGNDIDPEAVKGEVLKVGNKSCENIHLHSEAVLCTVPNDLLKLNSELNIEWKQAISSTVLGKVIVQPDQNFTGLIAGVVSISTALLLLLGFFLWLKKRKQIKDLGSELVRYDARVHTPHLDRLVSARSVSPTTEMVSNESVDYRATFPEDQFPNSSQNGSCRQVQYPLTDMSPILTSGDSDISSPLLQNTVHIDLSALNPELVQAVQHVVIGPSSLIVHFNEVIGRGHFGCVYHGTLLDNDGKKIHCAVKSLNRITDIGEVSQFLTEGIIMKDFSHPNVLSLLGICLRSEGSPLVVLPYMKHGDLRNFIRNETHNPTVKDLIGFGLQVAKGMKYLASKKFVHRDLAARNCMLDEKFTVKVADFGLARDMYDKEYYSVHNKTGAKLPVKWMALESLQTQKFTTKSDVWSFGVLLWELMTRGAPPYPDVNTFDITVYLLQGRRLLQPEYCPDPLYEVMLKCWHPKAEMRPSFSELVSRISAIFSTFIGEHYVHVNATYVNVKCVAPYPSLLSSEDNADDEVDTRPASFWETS
Procedure: Example D-1: Human Met (residues R974-S1390 with A1209G and V1290L, 3.4 nM) was incubated with 8 mM MOPS pH 7.0, 0.2 mM EDTA, 250 µM […] (SEQ ID NO:3), 1 mM sodium orthovanadate, 5 mM […], 10 mM magnesium acetate, and 10 μM [γ-33P-ATP]. The reaction was initiated by the addition of the Mg/ATP mix. After incubation for 40 minutes at room temperature, the reaction was stopped by the addition of phosphoric acid to a concentration of 0.5%. A reaction aliquot of 10 μL was then spotted onto a P30 filtermat and washed four times for 4 minutes in 0.425% phosphoric acid and once in methanol prior to drying and scintillation counting. Incorporated 33P was measured using the Wallac Microbeta scintillation counter (Perkin Elmer).Example D-2: Human MET (residues 956-1390; CarnaBio, 0.1 ng/well) was also incubated with enzymatic buffer (Cisbio) supplemented with 5 mM MgCl2, 1 mM DTT and 1 mM MnCl2. The mixture was added to the pre-plated compounds. […] The reaction was incubated at room temperature for 40 min and stopped upon the addition of SA-XL665 and TK-antibody both diluted in EDTA-containing kinase detection buffer (Cisbio). The kinase activity was calculated as stated above and the IC50 values were reported.

[3] = biological target: Vascular endothelial growth factor receptor 2 (Homo sapiens, UniProt P35968); assay: Human KDR Kinase Assay
Vascular endothelial growth factor receptor 2, sequence (P35968 whole entry, the tested form may be a part): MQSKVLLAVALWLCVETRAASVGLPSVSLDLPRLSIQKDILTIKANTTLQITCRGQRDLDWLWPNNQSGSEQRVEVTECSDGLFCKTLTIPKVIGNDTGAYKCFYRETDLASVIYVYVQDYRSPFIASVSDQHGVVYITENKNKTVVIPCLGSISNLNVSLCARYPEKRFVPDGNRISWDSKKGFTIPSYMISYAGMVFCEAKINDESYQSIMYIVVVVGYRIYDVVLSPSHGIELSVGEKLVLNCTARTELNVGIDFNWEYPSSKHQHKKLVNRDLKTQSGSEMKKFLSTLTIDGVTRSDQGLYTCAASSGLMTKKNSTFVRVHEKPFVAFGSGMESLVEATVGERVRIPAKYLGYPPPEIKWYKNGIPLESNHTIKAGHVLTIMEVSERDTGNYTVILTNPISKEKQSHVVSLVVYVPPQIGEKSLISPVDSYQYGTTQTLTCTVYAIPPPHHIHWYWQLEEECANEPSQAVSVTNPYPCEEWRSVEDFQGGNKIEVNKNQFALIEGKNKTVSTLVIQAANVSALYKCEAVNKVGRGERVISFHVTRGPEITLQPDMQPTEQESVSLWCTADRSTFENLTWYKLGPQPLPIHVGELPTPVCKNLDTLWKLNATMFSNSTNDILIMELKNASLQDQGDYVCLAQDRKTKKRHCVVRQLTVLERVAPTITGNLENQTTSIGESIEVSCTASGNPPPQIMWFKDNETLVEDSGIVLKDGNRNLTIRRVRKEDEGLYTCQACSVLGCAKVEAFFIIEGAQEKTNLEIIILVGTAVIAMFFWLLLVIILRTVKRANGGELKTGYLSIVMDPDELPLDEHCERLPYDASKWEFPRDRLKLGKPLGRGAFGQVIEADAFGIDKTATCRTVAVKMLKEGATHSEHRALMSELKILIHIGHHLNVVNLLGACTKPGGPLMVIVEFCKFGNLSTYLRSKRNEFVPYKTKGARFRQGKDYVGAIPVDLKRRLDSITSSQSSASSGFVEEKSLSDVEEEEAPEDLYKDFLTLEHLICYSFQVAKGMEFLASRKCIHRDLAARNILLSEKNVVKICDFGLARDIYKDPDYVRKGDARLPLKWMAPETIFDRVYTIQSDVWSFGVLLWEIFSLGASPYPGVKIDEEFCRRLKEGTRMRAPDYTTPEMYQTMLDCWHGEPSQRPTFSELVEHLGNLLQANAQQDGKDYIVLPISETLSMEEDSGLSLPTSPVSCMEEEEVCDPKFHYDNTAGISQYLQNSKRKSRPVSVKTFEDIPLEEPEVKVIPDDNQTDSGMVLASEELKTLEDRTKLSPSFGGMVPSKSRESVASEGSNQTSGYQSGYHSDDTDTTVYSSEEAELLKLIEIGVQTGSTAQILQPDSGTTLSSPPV
Procedure: Example B-1: Human KDR (residues K790-V1356, 55 nM) was incubated with 8 mM MOPS pH 7.0, 0.2 mM EDTA, 0.33 mg/mL myelin basic protein, 10 mM magnesium acetate, and 10 μM [γ-33P-ATP]. The reaction was initiated by the addition of the Mg/ATP mix. After incubation for 40 minutes at room temperature, the reaction was stopped by the addition of phosphoric acid to a concentration of 0.5%. A reaction aliquot of 10 μL was then spotted onto a P30 filtermat and washed four times for 4 minutes in 0.425% phosphoric acid and once in methanol prior to drying and scintillation counting. Incorporated 33P was measured using the Wallac Microbeta scintillation counter (Perkin Elmer).Example B-2: Human KDR (residues 790-1356; CarnaBio, 0.1 ng/well) was also incubated with enzymatic buffer (Cisbio) supplemented with 5 mM MgCl2, 1 mM MnCl2, and 1 mM DTT. The mixture was added to the pre-plated compounds. The reaction was initiated upon addition of ATP at Km (4.0 μM). The reaction was incubated at room temperature for 40 min and stopped upon the addition of SA-XL665 and TK-antibody both diluted in EDTA-containing kinase detection buffer (Cisbio). The kinase activity was calculated as stated above and the IC50 values were reported.

Measured: IC50

COCCOc1ccc2nccc(Oc3ccc(NC(=O)C4=C(C)N=C(C)C(c5ccc(F)cc5)C4O)cc3F)c2n1 (stereo unspecified) [US12371428, Compound 349]
< 100 nM: all assays above

COc1cc2nccc(Oc3ccc(NC(=O)C4C(=O)C(c5ccc(F)cc5)=C(C)N=C4C)cc3F)c2nc1OC (stereo unspecified) [US12371428, Compound 154]
< 100 nM: all assays above
